Laboratory results: ChEMBL document CHEMBL4819030, “Microbial Transformation of Broussochalcones A and B by Aspergillus niger” (J Nat Prod, 2021)
Active and inactive are the calls of the source. No cut-off for these calls is given here.

Columns and labels:
Type in all cases: functional, cell-based
HT-29 = assay: Cytotoxicity against human HT29 cells incubated for 24 hrs by MTT assay
A549 = assay: Cytotoxicity against human A549 cells incubated for 48 hrs by MTT assay
HepG2 = assay: Cytotoxicity against human HepG2 cells incubated for 48 hrs by MTT assay
A375P = assay: (§1) Cytotoxicity against human A375P cells incubated for 24 hrs by MTT assay
MCF7 = assay: Cytotoxicity against human MCF7 cells incubated for 24 hrs by MTT assay
[1] = as §1

SMILES: CC(C)(O)[C@H](O)Cc1cc(C(=O)/C=C/c2ccc(O)c(O)c2)c(O)cc1O
- Activity (HT-29): inactive
- Activity (A549): inactive
- Activity (HepG2): inactive
- Activity (A375P): inactive
- Activity (MCF7): inactive

SMILES: CC1(C)O[C@H]1Cc1cc(C(=O)/C=C/c2ccc(O)cc2)c(O)cc1O
- Activity (HT-29): inactive
- Activity (A549): inactive
- Activity (HepG2): inactive
- Activity (A375P): inactive
- Activity (MCF7): inactive

SMILES: CC(C)(O)[C@H](O)Cc1cc(C(=O)/C=C/c2ccc(O)cc2)c(O)cc1O
- Activity (HT-29): inactive
- Activity (A549): inactive
- Activity (HepG2): inactive
- Activity (A375P): inactive
- Activity (MCF7): inactive

SMILES: CC1(C)O[C@H]1Cc1cc(C(=O)/C=C/c2ccc(O)c(O)c2)c(O)cc1O
- Activity (HT-29): inactive
- Activity (A549): inactive
- Activity (HepG2): inactive
- Activity (A375P): inactive
- Activity (MCF7): inactive

SMILES: CC(C)(O)[C@@H](O)Cc1cc(C(=O)CCc2ccc(O)c(O)c2)c(O)cc1O
- Activity (HT-29): inactive
- Activity (A549): inactive
- Activity (HepG2): inactive
- Activity (A375P): inactive
- Activity (MCF7): inactive

SMILES: CC(C)(O)[C@H]1Cc2cc(C(=O)CCc3ccc(O)cc3)c(O)cc2O1
- Activity (HT-29): inactive
- Activity (A549): inactive
- Activity (HepG2): inactive
- Activity (A375P): inactive
- Activity (MCF7): inactive

SMILES: CC(C)(O)[C@@H](O)Cc1cc(C(=O)CCc2ccc(O)cc2)c(O)cc1O
- Activity (HT-29): inactive
- Activity (A549): inactive
- Activity (HepG2): inactive
- Activity (A375P): inactive
- Activity (MCF7): inactive

SMILES: CC1(C)O[C@@H]1Cc1cc(C(=O)CCc2ccc(O)c(O)c2)c(O)cc1O
- Activity (HT-29): inactive
- Activity (A549): inactive
- Activity (HepG2): inactive
- Activity (A375P): inactive
- Activity (MCF7): inactive

SMILES: CC(C)=CCc1cc(C(=O)CCc2ccc(O)c(O)c2)c(O)cc1O
- IC50 (HT-29; HT-29, 24 h): 3.8 µM
- IC50 (A549; A549, 48 h): 3.8 µM
- Activity (HepG2): inactive
- IC50 [1]: 3.8 µM
- IC50 (MCF7; MCF7, 24 h): 3.8 µM

SMILES: CC1(C)O[C@@H]1Cc1cc(C(=O)CCc2ccc(O)cc2)c(O)cc1O
- Activity (HT-29): inactive
- Activity (A549): inactive
- Activity (HepG2): inactive
- Activity (A375P): inactive
- Activity (MCF7): inactive
